Results published in US20160120932A1, “TRANSPLANT SITE-FORMING AGENT, TRANSPLANT SITE-FORMING DEVICE, ANGIOGENIC AGENT AND ANGIOGENIC DEVICE” (Kyoto University, priority 2014, published 2016).

Legend:
[1] = system: subcutaneous tissue of diabetic ACI rats; assay: Amount of hemoglobin in subcutaneous tissue at contact portion with the agarose rod; type: in vivo, rat; conditions: agarose rod containing 10 μg or 100 μg of SEK-1005, implanted for 10 days
Procedure: (§1) Diabetic rats were prepared by intraperionerally administering streptozocin (STZ) to ACI rats (8-week old, male). The blood glucose level of the rats were measured, and it was determined that diabetes was induced when the blood glucose level exceeded 400 mg/dL for 2 days in succession. A substrate formed of 4.5% agarose gel having a rod shape of 25 mm in length and 4 mm in diameter was impregnated with SEK-1005 (100 μg) dissolved in alcohol. After sufficiently evaporating alcohol, the agarose rod was impregnated with physiological saline. The agarose rods were implanted under the skin of the diabetic rats at two portions, on the right side and on the left side of the backbone, respectively. As a control, agarose rods that were impregnated with physiological saline without SEK-1005 were implanted under the skin of a diabetic rat, on the right side and on the left side of the backbone, respectively.
The data shown in FIG. 3 are the measurement results of the amount of hemoglobin of a diabetic ACI rat to which an agarose rod was not implanted, a diabetic rat implanted with an agarose rod not containing SEK-1005, a diabetic rat implanted with an agarose rod containing 10 μg of SEK-1005, and a diabetic rat implanted with an agarose rod containing 100 μg of SEK-1005. The measurement was conducted after removing the agarose rod that had been implanted for 10 days. […]

[2] = system: white blood cells or bone-marrow cells; conditions: JP-A H10-259134; cited from earlier work
[3] = system: subcutaneous tissue of diabetic ACI rats; assay: Evaluation of effect of inducing angiogenesis: observation of tissue around agarose rod implanted under the skin (gross and HE-stained slice); type: in vivo, rat
Procedure: as §1
Ten days after the implantation, the agarose rods were removed and the surrounding tissues were observed.

[4] = system: diabetic ACI rats; assay: HE-stained and immunofluorescent-stained tissue slice of the transplant site; type: in vivo, rat; conditions: 106 days after transplantation
Excerpt: (§2) Pancreatic islets were separated from a F344 rat as a donor, and were transplanted to the diabetic ACI rats as prepared above as recipients. Specifically, the agarose rods containing SEK-1005 as prepared in the same process as described above were implanted on the right side and on the left side of the backbone of the diabetic rats, respectively, and were removed 10 days after the implantation. Thereafter, 1500 pancreatic islets separated from the F433 rat were transplanted to each of the spaces formed by removing the agarose rods, respectively (3000 pancreatic islets in total).
The upper images in FIG. 8 are photographs of a HE-stained tissue slice prepared from a site at which the pancreatic islets were transplanted, obtained from a recipient with a normalized blood glucose level at 106 days after the transplantation of the pancreatic islets.
The lower image in FIG. 8 is an immunofluorescent-stained image of a tissue slice obtained at the substantially same site to the HE-stained tissue slice.

[5] = system: diabetic ACI rats; assay: Plasma insulin concentration of recipients after transplanting pancreatic islets; type: in vivo, rat; conditions: at 40 days and at 90 days after transplanting the pancreatic islets; casual measurements
Excerpt: as §2
The error bars in FIG. 6 each indicate standard deviations (normal; n=4, diabetic; n=3, 40 days after transplantation; n=4, 90 days after transplantation; n=4). The values of the plasma insulin concentration are casual measurements.

[6] = system: diabetic ACI rats; assay: Blood glucose level of recipients after transplanting pancreatic islets to the site from which the agarose rod was removed; type: in vivo; conditions: SEK-1005 rods removed after 10 days, 3000 pancreatic islets from F344 rat transplanted; casual blood glucose level
Procedure: as §1
as §2, with “Thereafter, 1500 pancreatic islets separated from the F433 rat were transplanted to each of the spaces formed by removing the agarose rods, respectively (3000 pancreatic islets in total).” left out

[7] = system: diabetic ACI rats; assay: Glucose tolerance test of recipients after transplantation of pancreatic islets; type: in vivo, rat; conditions: glucose intraperitoneally (60 mg/kg)
Excerpt: as §2
In the test, changes in the blood glucose level after intraperitoneally administering glucose (60 mg/kg) were examined.
Further, glucose was administered in the same manner as the above to the recipients at 100 to 105 days after the transplantation of pancreatic islets, and the changes in the blood glucose level were examined. As a result, a trend that a degree of decrease in blood glucose level was less than the recipients at 50 to 55 days after the transplantation of the pancreatic islets was observed. […] On the other hand, the diabetic rats maintained a blood glucose level of as high as approximately 500 mg/dL. The error bars in FIG. 7 each indicate standard deviations (normal; n=4, diabetic; n=3, 40 days after transplantation; n=4, 90 days after transplantation; n=4).

[8] = system: diabetic rat; conditions: device containing bFGF; cited from earlier work

Row | Compound | amount of hemoglobin in the subcutaneous tissue (FIG. 3) [1] | amount of granulation tissue [2] | development of blood vessels having a small diameter at the surrounding tissue (FIG. 1) ([3]; agarose rod containing SEK-1005 (100 μg) implanted under the skin for 10 days, compared to rod not containing SEK-1005) | development of blood vessels having a small diameter in HE-stained subcutaneous tissue slice (FIG. 2) ([3]; contact portion with agarose rod containing SEK-1005, compared with rod not containing SEK-1005) | blood vessels in the cell clumps, HE-stained tissue slice of transplant site (FIG. 8) [4] | insulin-positive cells in immunofluorescent-stained tissue slice (FIG. 8) [4] | pancreatic islet cell clumps in HE-stained tissue slice of transplant site (FIG. 8) ([4]; recipient with normalized blood glucose level) | plasma insulin concentration versus diabetic rat to which pancreatic islets were not transplanted (FIG. 6) [5] | plasma insulin concentration versus normal rat (FIG. 6) [5] | blood glucose levels of recipients (FIG. 4) [6] | changes in blood glucose level in glucose tolerance test (FIG. 7) ([7]; 50 to 55 days after transplantation) | changes in blood glucose level in glucose tolerance test (FIG. 7) ([7]; 100 to 105 days after transplantation) | blood glucose level after transplanting pancreatic islets at the site after removing the device [8] | generation of blood vessels at the site under the skin where the device was implanted [8]
1 | CC(C)CC1CCC(O)(C(C)(O)C(=O)NC2C(=O)N3NCCCC3C(=O)N(O)C(C)C(=O)N(C)C(Cc3ccccc3)C(=O)N3NCCCC3C(=O)NC(CO)C(=O)OC2C(C)C)OC1C (stereo not drawn) [SEK-1005, Ser,3-hydroxy-N-[2-hydroxy-1-oxo-2-tetrahydro-2-hydroxy-6-methyl-5-(2-methylpropyl)-2H-pyran-2-yl-propyl]-Leu-Pip(hexahydro-3-pyridazinecarbonyl)-N-hydroxy-Ala-N-methyl-Phe-Pip-rho-lactone] | increased | increasing the amount of a granulation tissue | blood vessels having a small diameter were developed | blood vessels having a small diameter were developed | many blood vessels having a small diameter penetrated the cell clumps | insulin-positive cells were observed | many cell clumps which were considered to be pancreatic islets existed | significantly higher | did not show a significant difference | four in six recipients were normalized over 100 days | controlled to a similar level to a normal rat | controlled to a degree similar to that of a normal rat |  | 
2 | bFGF: basic fibroblast growth factors, a substance for inducing angiogenesis |  |  |  |  |  |  |  |  |  |  |  |  | normalized during a long period of time | generation of blood vessels having a small diameter was observed
